Source: ChEMBL document CHEMBL5329155, “Synthesis and pharmacological evaluation of 1,3-diaryl substituted pyrazole based (thio)urea derivatives as potent antimicrobial agents against multi-drug resistant Staphylococcus aureus and Mycobacterium tuberculosis” (RSC Med Chem, 2023)
≈ marks a conversion by molar mass, not a printed value.

How the values were obtained:
Assay type in all cases: functional
Staphylococcus aureus [1] = assay: Antibacterial activity against Staphylococcus aureus ATCC 29213 assessed as inhibition of bacterial growth measured for 18 to 24 hrs by broth dilution method; settings: time 18-24 hrs
[2] = tested on: Mycobacterium tuberculosis; assay: Antimycobacterial activity against Mycobacterium tuberculosis H37Rv ATCC 27294 assessed as inhibition of bacterial growth incubated for 18 to 24 hrs by broth dilution method
[3] = tested on: Mycobacterium tuberculosis; assay: Antimycobacterial activity against Mycobacterium tuberculosis H37Rv assessed as reduction in bacterial growth
[4] = tested on: Mycobacterium tuberculosis; assay: Antimycobacterial activity against isoniazid-resisitant Mycobacterium tuberculosis ATCC 35822 assessed as inhibition of bacterial growth incubated for 18 to 24 hrs by broth dilution method; settings: time 18-24 hrs
[5] = tested on: Mycobacterium tuberculosis; assay: Antimycobacterial activity against ethambutol-resisitant Mycobacterium tuberculosis ATCC 35837 assessed as inhibition of bacterial growth incubated for 18 to 24 hrs by broth dilution method; settings: time 18-24 hrs
[6] = tested on: Mycobacterium tuberculosis; assay: Antimycobacterial activity against streptomycin-resisitant Mycobacterium tuberculosis ATCC 35820 assessed as inhibition of bacterial growth incubated for 18 to 24 hrs by broth dilution method; settings: time 18-24 hrs
[7] = tested on: Mycobacterium tuberculosis; assay: Antimycobacterial activity against rifampicin-resisitant Mycobacterium tuberculosis ATCC 35838 assessed as inhibition of bacterial growth incubated for 18 to 24 hrs by broth dilution method; settings: time 18-24 hrs
Staphylococcus aureus [8] = assay: Antibacterial activity against methicillin-resistant Staphylococcus aureus assessed as reduction in bacterial growth

SMILES	MIC (Staphylococcus aureus [1])	MIC [2]	further results
COc1ccc(-c2ccn(-c3ccc(NC(=S)Nc4ccc(Cl)cc4)cc3)n2)cc1OC	> 64 mg/L	8 mg/L (≈ 17.2 µM)	–
O=C(NCc1ccccc1)Nc1ccc(-n2ccc(-c3cccnc3)n2)cc1	> 64 mg/L	8 mg/L (≈ 21.7 µM)	–
COc1ccc(-c2nn(-c3ccc(Cl)cc3)cc2Cn2cncn2)cc1	–	–	MIC [3]: 4.4 mg/L (≈ 12 µM)
COc1ccc(-c2ccn(-c3ccc(NC(=S)Nc4ccccc4)cc3)n2)cc1OC	> 64 mg/L	8 mg/L (≈ 18.6 µM)	–
COc1ccc(-c2ccn(-c3ccc(NC(=O)Nc4ccccc4)cc3)n2)cc1OC	> 64 mg/L	8 mg/L (≈ 19.3 µM)	–
COc1ccc(-c2ccn(-c3ccc(NC(=O)NCc4ccccc4)cc3)n2)cc1	> 64 mg/L	> 64 mg/L	–
COc1ccc(-c2ccn(-c3ccc(NC(=S)Nc4ccc(C#N)cc4)cc3)n2)cc1OC	> 64 mg/L	32 mg/L (≈ 70.2 µM)	–
COc1ccc(-c2ccn(-c3ccc(NC(=O)Nc4ccc(F)cc4F)cc3)n2)cc1	> 64 mg/L	8 mg/L (≈ 19 µM)	–
O=C(NCc1ccccc1)Nc1ccc(-n2ccc(-c3ccccc3)n2)cc1	> 64 mg/L	> 64 mg/L	–
COc1ccc(-c2ccn(-c3ccc(NC(=S)Nc4ccc([N+](=O)[O-])cc4)cc3)n2)cc1OC	> 64 mg/L	16 mg/L (≈ 33.6 µM)	–
O=C(Nc1ccc(-n2ccc(-c3ccccc3)n2)cc1)Nc1ccc(Cl)c(Cl)c1	> 64 mg/L	64 mg/L (≈ 151 µM)	–
COc1ccc(-c2ccn(-c3ccc(NC(=O)Nc4ccc(Cl)c(Cl)c4)cc3)n2)cc1	> 64 mg/L	32 mg/L (≈ 70.6 µM)	–
O=C(Nc1ccc(-n2ccc(-c3ccccc3)n2)cc1)Nc1ccc(F)cc1F	> 64 mg/L	> 64 mg/L	–
CN[C@@H]1[C@H](O[C@H]2[C@H](O[C@H]3[C@H](O)[C@@H](O)[C@H](N=C(N)N)[C@@H](O)[C@@H]3N=C(N)N)O[C@@H](C)[C@]2(O)C=O)O[C@@H](CO)[C@H](O)[C@H]1O [STREPTOMYCIN]	–	1 mg/L (≈ 1.72 µM)	MIC [4]: 1 mg/L (≈ 1.72 µM); MIC [5]: 1 mg/L (≈ 1.72 µM); MIC [6]: > 64 mg/L; MIC [7]: 1 mg/L (≈ 1.72 µM)
S=C(Nc1ccc(Cl)cc1)n1ccc(OCc2ccccc2)n1	–	–	MIC (Staphylococcus aureus [8]): 0.15 µM (≈ 0.0516 µg/mL)
O=C(Nc1ccc(-n2ccc(-c3cccnc3)n2)cc1)Nc1ccc(F)cc1F	> 64 mg/L	8 mg/L (≈ 20.4 µM)	–
COc1ccc(-c2ccn(-c3ccc(NC(=S)Nc4cccc(Br)c4)cc3)n2)cc1OC	64 mg/L (≈ 126 µM)	16 mg/L (≈ 31.4 µM)	–
CCCCCCCNC(=S)Nc1ccc(-n2ccc(-c3ccc(OC)c(OC)c3)n2)cc1	> 64 mg/L	4 mg/L (≈ 8.84 µM)	–
COc1cc(-c2ccn(-c3ccc(NC(=O)Nc4ccc(Cl)c(Cl)c4)cc3)n2)cc(OC)c1OC	> 64 mg/L	> 64 mg/L	–
O=C(NCc1ccccc1)Nc1ccc(-n2ccc(-c3ccc(Cl)cc3)n2)cc1	> 64 mg/L	> 64 mg/L	–
COc1ccc(-c2ccn(-c3ccc(NC(=S)Nc4ccc(F)c(Cl)c4)cc3)n2)cc1OC	> 64 mg/L	16 mg/L (≈ 33.1 µM)	–
COc1ccc(-c2ccn(-c3ccc(NC(=S)NC4CCCCC4)cc3)n2)cc1OC	> 64 mg/L	16 mg/L (≈ 36.6 µM)	–
